Reference: patent publication US20220000403A1, “NEUROT[…] DETECTION SYSTEM AND METHOD OF DETECTING A NEUROT[…]” (Ocumove ApS, priority 2018, published 2022)

Columns and labels:
Assay type in all cases: in vivo, human
patient with ADHD [1] = test: Frequency analysis (FFT) of closed-eye movement signal before/after medication, Example 5; conditions: one tablet of 10 mg
Method: (§1) Strain gauge sensors (SleepSense Limb Movement Sensors) from SleepSense were used as eye movement sensors. These where connected to a Digital Brain Electric Activity Mapping KT88 EEG apparatus as a recording and frequency analysis arrangement.
(§2) The subjects were instructed to keep their eyes closed, but to refrain from falling asleep.
(§3) The signal from the sensors where filtered by one of two different filters; a 2.5 Hz low pass filter with 24 dB reduction.
(§4) A signal was recorded over a period of 5 minutes. 1 minute of signal is illustrated in FIG. 3.
Using eye movement signals recorded as explained in example 1, frequency analysis was performed to determine a frequency distribution. However, only a 10 seconds period corresponding to the first 10 seconds of the latency time of example 2 was used. A Fast Fourier Transformation (FFT) based algorithm was used, with a 100 mHz resolution.
Using eye movement signals recorded as explained in example 1, frequency analysis was performed to determine a frequency distribution. A Fast Fourier Transformation (FFT) based algorithm was used, with a 100 mHz resolution.
In example 5, signals were recorded on a patient with ADHD.
On FIG. 6A is the result when the patient was in an initial, unmedicated state. […]

patient with ADHD [2] = test: Number of large eye movements before/after medication, Example 5
Method: as §1, §2, §3, §4
A large eye movement number was established as the number of times the signals exceeded 50 μV, or moved below −50 μV. This signifies the number of large eye movements.
On FIG. 6A is the result when the patient was in an initial, unmedicated state. A second measurement was made after administering suitable ADHD-medication to the patient (one tablet of 10 mg of methylphenidate), this is shown in FIG. 6B.
Furthermore, the number of eye movements was analyzed as in example 1, before and after medication.

subjects with ADHD = test: Eye movement signal parameters before/after methylphenidate, ADHD subjects (Example 6.6)
Method: as §1, §2, §3, §4
(§5) Eye movement signals were recorded using the methods described in example 1.
Data from 7 subjects with ADHD examined before treatment. Hereafter methylphenidate was administered, and after a subjective assessment of an effect thereof, the measurement was repeated. The sensors were in place during the entire test.

subjects with ADD = test: Eye movement signal parameters before/after methylphenidate, ADD subjects (Example 6.6)
Method: as §1, §2, §3, §4, §5
In 3 out of 4 cases, an increase in the amplitude and a decrease in the average frequency was observed.

[3] = system: subjects with an AHDH or ADD diagnosis; test: Maximum FFT amplitude before/after startup of methylphenidate treatment (Example 7.3); conditions: for decrease in eye activity (RC): no positive effect of the treatment
Method: A number of sample signals were recorded. Each sample was recorded over a period of 360 seconds. Only the middle 240 seconds are used, as the first 60 seconds and the last 60 second of the signal is discarded to avoid introducing artifacts related to the startup and termination of the test and the subject getting used to the eye sensors etc.
The signals were subjected to frequency analysis by FFT with 100 mHz solution.
Maximum amplitude of the frequency distribution (i.e. max FFT amplitude) is identified.
20 subjects with an AHDH or ADD diagnosis were evaluated with respect to effect of startup of methylphenidate treatment. A sample was recorded for each subject in accordance with example 7.2, and a maximum FFT amplitude was outputted from the frequency analysis arrangement (maximum FFT amplitude before, MAB). Thereafter, a startup dose of methylphenidate was prescribed for each subject. After ingestion, a further sample was recorded for each subject, and a maximum FFT amplitude was outputted from the frequency analysis arrangement (maximum FFT amplitude after, MAA).

SMILES: COC(=O)C(c1ccccc1)C1CCCCN1 (centres unmarked) [methylphenidate]
- maximum value of frequency components after medication, reduction to (patient with ADHD [1]; 10 s period, FIG. 6C vs 6D): ~20%
- frequency content after medication, reduction to (patient with ADHD [1]; 5 min signal, FIG. 6A vs 6B): ~50%
- Number of eye movements after medication (patient with ADHD [2]; 1-60 s, signal exceeding +/− 50 μV, before 54): 60
- Number of eye movements after medication (patient with ADHD [2]; 61-120 s, before 15): 0
- Number of eye movements after medication (patient with ADHD [2]; 121-180 s, before 23): 2
- Number of eye movements after medication (patient with ADHD [2]; 181-240 s, before 16): 1
- Number of eye movements after medication (patient with ADHD [2]; 241-300 s, before 14): 2
- cases with a fall in the amplitude and an increase in the average frequency (subjects with ADHD; of 7 subjects with ADHD, after methylphenidate): 6 cases
- DATA B Av Fq (subjects with ADHD; subject 143/144, after treatment, before 3.241667): 4.858
- DATA B FFT Amplitude (subjects with ADHD; subject 143/144, after treatment, before 15): 7
- DATA B Av Amp (subjects with ADHD; subject 143/144, after treatment, before −0.37474): 0.001138
- DATA B Av Fq (subjects with ADHD; subject 167/168, after treatment, before 4.511667): 4.647
- DATA B FFT Amplitude (subjects with ADHD; subject 167/168, after treatment, before 10): 9.6
- DATA B Av Amp (subjects with ADHD; subject 167/168, after treatment, before −0.199017): 0.04479
- DATA B Av Amp (subjects with ADHD; subject 177/178, after treatment, before 0.578600): 0.5056
- DATA B Av Fq (subjects with ADHD; subject 177/178, after treatment, before 2.05333): 2.23
- DATA B FFT Amplitude (subjects with ADHD; subject 177/178, after treatment, before 28): 26
- DATA B Av Amp (subjects with ADHD; subject 179/180, after treatment, before 0.002030): 0.04999
- DATA B Av Fq (subjects with ADHD; subject 179/180, after treatment, before 3.07500): 3.695
- DATA B FFT Amplitude (subjects with ADHD; subject 179/180, after treatment, before 9.5): 4.1
- DATA B Av Amp (subjects with ADHD; subject 187/188, after treatment, before 0.061771): 0.09263
- DATA B Av Fq (subjects with ADHD; subject 187/188, after treatment, before 2.73667): 2.553
- DATA B FFT Amplitude (subjects with ADHD; subject 187/188, after treatment, before 9.5): 12
- DATA B Av Amp (subjects with ADHD; subject 189/190, after treatment, before 0.012759): 0.007571
- DATA B Av Fq (subjects with ADHD; subject 189/190, after treatment, before 3.79500): 3.947
- DATA B FFT Amplitude (subjects with ADHD; subject 189/190, after treatment, before 8.5): 5.0
- DATA B Av Amp (subjects with ADHD; subject 192/193, after treatment, before 0.046206): 0.000667
- DATA B Av Fq (subjects with ADHD; subject 192/193, after treatment, before 2.425000): 4.838
- DATA B FFT Amplitude (subjects with ADHD; subject 192/193, after treatment, before 22): 8.0
- cases with an increase in the amplitude and a decrease in the average frequency (subjects with ADD; out of 4 ADD subjects treated with methylphenidate): 3 cases
- DATA B Av Amp (subjects with ADD; subject 146/147, after treatment, before 0.031965): 0.03275
- DATA B FFT Amplitude (subjects with ADD; subject 146/147, after treatment, before 3): 6.1
- DATA B Av Fq (subjects with ADD; subject 146/147, after treatment, before 5.07667): 4.083
- DATA B Av Amp (subjects with ADD; subject 152/153, after treatment, before 0.061080): 0.04852
- DATA B Av Fq (subjects with ADD; subject 152/153, after treatment, before 3.62833): 4.618
- DATA B FFT Amplitude (subjects with ADD; subject 152/153, after treatment, before 5.5): 4.2
- DATA B Av Amp (subjects with ADD; subject 170/171, after treatment, before 0.030927): 0.02591
- DATA B FFT Amplitude (subjects with ADD; subject 170/171, after treatment, before 2.5): 2.6
- DATA B Av Fq (subjects with ADD; subject 170/171, after treatment, before 5.80555): 5.523
- DATA B Av Amp (subjects with ADD; subject 184/185, after treatment, before 0.054841): 0.05472
- DATA B Av Fq (subjects with ADD; subject 184/185, after treatment, before 4.42333): 3.64
- DATA B FFT Amplitude (subjects with ADD; subject 184/185, after treatment, before 5.0): 8.0
- Eff. M.: Evaluation of effect of methylphenidate ([3]; subject 143 ADHD): Good
- RC: relative change in FFT amplitude ([3]; subject 143 ADHD): −53
- MAA: Maximum FFT amplitude after ([3]; subject 143 ADHD, MAB 14.3): 6.7
- Eff. M.: Evaluation of effect of methylphenidate ([3]; subject 146): No
- RC: relative change in FFT amplitude ([3]; subject 146): 100
- MAA: Maximum FFT amplitude after ([3]; subject 146, MAB 2.8): 5.6
- Eff. M.: Evaluation of effect of methylphenidate ([3]; subject 148 ADHD): Good
- RC: relative change in FFT amplitude ([3]; subject 148 ADHD): −60
- MAA: Maximum FFT amplitude after ([3]; subject 148 ADHD, MAB 8.7): 3.5
- Eff. M.: Evaluation of effect of methylphenidate ([3]; subject 152): Good
- RC: relative change in FFT amplitude ([3]; subject 152): −56
- MAA: Maximum FFT amplitude after ([3]; subject 152, MAB 4.58): 2.0
- Eff. M.: Evaluation of effect of methylphenidate ([3]; subject 155): No
- RC: relative change in FFT amplitude ([3]; subject 155): 17
- MAA: Maximum FFT amplitude after ([3]; subject 155, MAB 3.6): 4.2
- decrease in eye activity (RC) ([3]; subject 177): below 10%
- Eff. M.: Evaluation of effect of methylphenidate ([3]; subject 177 ADHD): No
- RC: relative change in FFT amplitude ([3]; subject 177 ADHD): −7
- MAA: Maximum FFT amplitude after ([3]; subject 177 ADHD, MAB 26.7): 24.8
- Eff. M.: Evaluation of effect of methylphenidate ([3]; subject 179 ADHD): Good
- RC: relative change in FFT amplitude ([3]; subject 179 ADHD): −65
- MAA: Maximum FFT amplitude after ([3]; subject 179 ADHD, MAB 8.9): 3.1
- Eff. M.: Evaluation of effect of methylphenidate ([3]; subject 184): Good
- RC: relative change in FFT amplitude ([3]; subject 184): 65
- MAA: Maximum FFT amplitude after ([3]; subject 184, MAB 4.8): 7.9
- Eff. M.: Evaluation of effect of methylphenidate ([3]; subject 187 ADHD): Good
- RC: relative change in FFT amplitude ([3]; subject 187 ADHD): 19
- MAA: Maximum FFT amplitude after ([3]; subject 187 ADHD, MAB 9.0): 10.7
- Eff. M.: Evaluation of effect of methylphenidate ([3]; subject 189): Good
- RC: relative change in FFT amplitude ([3]; subject 189): −39
- MAA: Maximum FFT amplitude after ([3]; subject 189, MAB 9.0): 5.5
- Eff. M.: Evaluation of effect of methylphenidate ([3]; subject 192 ADHD): Good
- RC: relative change in FFT amplitude ([3]; subject 192 ADHD): −66
- MAA: Maximum FFT amplitude after ([3]; subject 192 ADHD, MAB 21.4): 7.3
- Eff. M.: Evaluation of effect of methylphenidate ([3]; subject 197): Good
- RC: relative change in FFT amplitude ([3]; subject 197): −56
- MAA: Maximum FFT amplitude after ([3]; subject 197, MAB 14.2): 6.2
- Eff. M.: Evaluation of effect of methylphenidate ([3]; subject 202 ADHD): No
- RC: relative change in FFT amplitude ([3]; subject 202 ADHD): 33
- MAA: Maximum FFT amplitude after ([3]; subject 202 ADHD, MAB 34.4): 45.9
- Eff. M.: Evaluation of effect of methylphenidate ([3]; subject 204 ADHD): Good
- RC: relative change in FFT amplitude ([3]; subject 204 ADHD): −66
- MAA: Maximum FFT amplitude after ([3]; subject 204 ADHD, MAB 6.2): 2.1
- Eff. M.: Evaluation of effect of methylphenidate ([3]; subject 210 ADHD): No
- RC: relative change in FFT amplitude ([3]; subject 210 ADHD): 14
- MAA: Maximum FFT amplitude after ([3]; subject 210 ADHD, MAB 7.6): 8.7
- Eff. M.: Evaluation of effect of methylphenidate ([3]; subject 212): No
- RC: relative change in FFT amplitude ([3]; subject 212): 27
- MAA: Maximum FFT amplitude after ([3]; subject 212, MAB 13.1): 16.7
- Eff. M.: Evaluation of effect of methylphenidate ([3]; subject 248 ADHD): No
- RC: relative change in FFT amplitude ([3]; subject 248 ADHD): 14
- MAA: Maximum FFT amplitude after ([3]; subject 248 ADHD, MAB 15.9): 18.2
- Eff. M.: Evaluation of effect of methylphenidate ([3]; subject 250): Good
- RC: relative change in FFT amplitude ([3]; subject 250): −24
- MAA: Maximum FFT amplitude after ([3]; subject 250, MAB 15.8): 12.0
- Eff. M.: Evaluation of effect of methylphenidate ([3]; subject 255): Good
- RC: relative change in FFT amplitude ([3]; subject 255): −30
- MAA: Maximum FFT amplitude after ([3]; subject 255, MAB 22.9): 16.0
- Eff. M.: Evaluation of effect of methylphenidate ([3]; subject 258): No
- RC: relative change in FFT amplitude ([3]; subject 258): −2
- MAA: Maximum FFT amplitude after ([3]; subject 258, MAB 11.2): 11.0
- decrease in eye activity (RC) ([3]; subject 258): below 10%
